According to ChEMBL document CHEMBL5625227, “Discovery and optimization of 2,3-diaryl-1,3-thiazolidin-4-one-based derivatives as potent and selective cytotoxic agents with anti-inflammatory activity” (Eur J Med Chem, 2023):

Columns and labels:
MCF7 = experiment: Cytotoxicity against human MCF7 cells assessed as inhibition in cell growth incubated for 72 hrs by MTT assay; type: functional, cell-based; settings: MCF7, 72 h
HT-29 = experiment: Cytotoxicity against human HT-29 cells assessed as inhibition in cell growth incubated for 72 hrs by MTT assay; type: functional, cell-based; settings: HT-29, 72 h
A2780 = experiment: Cytotoxicity against human A2780 cells assessed as inhibition in cell growth incubated for 72 hrs by MTT assay; type: functional, cell-based; settings: A2780, 72 h
[1] = Cytotoxicity against human MRC5 cells assessed as inhibition in cell growth incubated for 72 hrs by MTT assay; type: toxicity, cell-based
[2] = Selectivity index, ratio of IC50 for cytotoxicity against human MRC5 cells to IC50 for cytotoxicity against human MCF7 cells; settings: MRC5 cells versus MCF7 cells
[3] = Selectivity index, ratio of IC50 for cytotoxicity against human MRC5 cells to IC50 for cytotoxicity against human HT-29 cells; settings: MRC5 cells versus HT-29 cells
[4] = Selectivity index, ratio of IC50 for cytotoxicity against human MRC5 cells to IC50 for cytotoxicity against human A2780 cells; settings: MRC5 cells versus A2780 cells

Structure (SMILES)	IC50 (MCF7) [nM]	IC50 (HT-29) [nM]	IC50 (A2780) [nM]	IC50 at 72 h [1] [nM]	selectivity ratio at 72 h [2]	selectivity ratio at 72 h [3]	selectivity ratio at 72 h [4]
O=C(COc1ccc(N2C(=O)CSC2c2ccccc2)cc1)Nc1ccc(F)cc1 (configuration not stated)	2750	5130	5320	13500	4.89	2.62	2.53
O=C(COc1ccc(N2C(=O)CSC2c2ccccc2)cc1)Nc1ccccc1 (configuration not stated)	2390	4810	7070	3690	1.54	0.77	0.52
O=C(COc1ccc(N2C(=O)CSC2c2ccc(Cl)cc2)cc1)Nc1ccccc1 (configuration not stated)	1310	440	2600	1480	1.13	3.36	0.57
O=C(COc1ccc(N2C(=O)CSC2c2ccc(Cl)cc2)cc1)Nc1ccc(F)cc1 (configuration not stated)	1460	640	11000	8720	5.97	13.6	0.79
COc1ccc(NC(=O)COc2ccc(N3C(=O)CSC3c3ccc(Cl)cc3)cc2)cc1 (configuration not stated)	1240	780	1280	1000	0.81	1.28	0.78
Cc1ccc(NC(=O)COc2ccc(N3C(=O)CSC3c3ccc(C)cc3)cc2)cc1 (configuration not stated)	1330	700	2820	3110	2.34	4.44	1.1
COc1cc(NC(=O)COc2ccc(N3C(=O)CSC3c3ccccc3)cc2)cc(OC)c1OC (configuration not stated)	2270	3210	2000	9380	4.13	2.92	4.69
Cc1ccc(NC(=O)COc2ccc(N3C(=O)CSC3c3ccc(Cl)cc3)cc2)cc1 (configuration not stated)	2080	890	1640	3180	1.53	3.57	1.94
O=C(COc1ccc(N2C(=O)CSC2c2ccc(Cl)cc2)cc1)Nc1ccc(Cl)cc1 (configuration not stated)	2330	1320	7840	6600	2.83	5	0.84
Cc1ccc(C2SCC(=O)N2c2ccc(OCC(=O)Nc3ccccc3)cc2)cc1 (configuration not stated)	1150	1130	2810	890	0.77	0.79	0.32
COc1cc2c(c(OC)c1OC)-c1ccc(OC)c(=O)cc1[C@@H](NC(C)=O)CC2 [COLCHICINE]	–	5190	23	–	–	–	–
COc1cccc2c1C(=O)c1c(O)c3c(c(O)c1C2=O)C[C@@](O)(C(=O)CO)C[C@@H]3O[C@H]1C[C@H](N)[C@H](O)[C@H](C)O1 [DOXORUBICIN]	–	1500	5120	2500	–	–	–
COc1ccc(NC(=O)COc2ccc(N3C(=O)CSC3c3ccccc3)cc2)cc1OC (configuration not stated)	1760	2150	1280	7370	4.19	3.43	5.76
